Reference: patent publication US20260262643A1, “HERBICIDAL BENZOXAZINES” (FMC CORPORATION, priority 2022, published 2026)

Key:
[1] = test system: sedge, umbrella; assay: Test B flooded paddy test; assay type: in vivo, Cyperus difformis; conditions: 250 g ai/ha, Flood, 13 days, 0 to 100 scale (0 no effect, 100 complete control)
Summary of the method: (§1)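 Compound is introduced into paddy water covering soil by 3 cm, treating plants that have reached two leaves. Pots are kept flooded at that depth under greenhouse conditions. Assessment at 13 days gives a 0–100 visual control score.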

[2] = test system: ducksalad; assay: Test B flooded paddy test; assay type: in vivo, Heteranthera limosa; conditions: 250 g ai/ha, Flood, 13 days, 0 to 100 scale (0 no effect, 100 complete control)
Summary of the method: as §1

[3] = test system: kochia; assay: Test A preemergence; assay type: in vivo, Bassia scoparia; conditions: visual injury after 10 days, 0 to 100 scale, 0 is no effect, 100 is complete control
Summary of the method: (§2)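 Greenhouse pot test, 10 days. Compound (non-phytotoxic solvent, surfactant) sprayed on soil at seeding or on seedlings at one- to two-leaf stage. Visual injury rated 0–100 against untreated plants.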

[4] = test system: corn; assay: Test A postemergence; assay type: in vivo, Zea mays; conditions: postemergence, 10 days
Summary of the method: as §2

[5] = test system: barnyardgrass; assay: Test A postemergence; assay type: in vivo, Echinochloa crusgalli; conditions: postemergence, 10 days
Summary of the method: as §2

[6] = test system: blackgrass; assay: Test A preemergence; assay type: in vivo, Alopecurus myosuroides; conditions: visual injury after 10 days, 0 to 100 scale, 0 is no effect, 100 is complete control
Summary of the method: as §2

[7] = test system: foxtail, giant; assay: Test A preemergence; assay type: in vivo, Setaria faberi; conditions: visual injury after 10 days, 0 to 100 scale, 0 is no effect, 100 is complete control
Summary of the method: as §2

[8] = test system: kochia; assay: Test A postemergence; assay type: in vivo, Bassia scoparia; conditions: postemergence, 10 days
Summary of the method: as §2

[9] = test system: wheat; assay: Test A postemergence; assay type: in vivo, Triticum aestivum; conditions: postemergence, 10 days
Summary of the method: as §2

[10] = test system: barnyardgrass; assay: Test B flooded paddy test; assay type: in vivo, Echinochloa crus-galli; conditions: 250 g ai/ha, Flood, 13 days, 0 to 100 scale (0 no effect, 100 complete control)
Summary of the method: as §1

[11] = test system: oat, wild; assay: Test A postemergence; assay type: in vivo, Avena fatua; conditions: postemergence, 10 days
Summary of the method: as §2

[12] = test system: wheat; assay: Test A preemergence; assay type: in vivo, Triticum aestivum; conditions: visual injury after 10 days, 0 to 100 scale, 0 is no effect, 100 is complete control
Summary of the method: as §2

[13] = test system: barnyardgrass; assay: Test A preemergence; assay type: in vivo, Echinochloa crusgalli; conditions: visual injury after 10 days, 0 to 100 scale, 0 is no effect, 100 is complete control
Summary of the method: as §2

[14] = test system: galium; assay: Test A postemergence; assay type: in vivo, Galium aparine; conditions: postemergence, 10 days
Summary of the method: as §2

[15] = test system: corn; assay: Test A preemergence; assay type: in vivo, Zea mays; conditions: visual injury after 10 days, 0 to 100 scale, 0 is no effect, 100 is complete control
Summary of the method: as §2

[16] = test system: soybean; assay: Test A preemergence; assay type: in vivo, Glycine max; conditions: visual injury after 10 days, 0 to 100 scale, 0 is no effect, 100 is complete control
Summary of the method: as §2

[17] = test system: oat, wild; assay: Test A preemergence; assay type: in vivo, Avena fatua; conditions: visual injury after 10 days, 0 to 100 scale, 0 is no effect, 100 is complete control
Summary of the method: as §2

[18] = test system: blackgrass; assay: Test A postemergence; assay type: in vivo, Alopecurus myosuroides; conditions: postemergence, 10 days
Summary of the method: as §2

[19] = test system: foxtail, giant; assay: Test A postemergence; assay type: in vivo, Setaria faberi; conditions: postemergence, 10 days
Summary of the method: as §2

[20] = test system: rice; assay: Test B flooded paddy test; assay type: in vivo, Oryza sativa; conditions: 250 g ai/ha, Flood, 13 days, 0 to 100 scale (0 no effect, 100 complete control)
Summary of the method: as §1

[21] = test system: pigweed, palmer; assay: Test A preemergence; assay type: in vivo, Amaranthus palmeri; conditions: visual injury after 10 days, 0 to 100 scale, 0 is no effect, 100 is complete control
Summary of the method: as §2

[22] = test system: ragweed; assay: Test A preemergence; assay type: in vivo, Ambrosia artemisiifolia; conditions: visual injury after 10 days, 0 to 100 scale, 0 is no effect, 100 is complete control
Summary of the method: as §2

[23] = test system: ryegrass, Italian; assay: Test A postemergence; assay type: in vivo, Lolium multiflorum; conditions: postemergence, 10 days
Summary of the method: as §2

[24] = test system: pigweed, palmer; assay: Test A postemergence; assay type: in vivo, Amaranthus palmeri; conditions: postemergence, 10 days
Summary of the method: as §2

[25] = test system: ryegrass, Italian; assay: Test A preemergence; assay type: in vivo, Lolium multiflorum; conditions: visual injury after 10 days, 0 to 100 scale, 0 is no effect, 100 is complete control
Summary of the method: as §2

[26] = test system: soybean; assay: Test A postemergence; assay type: in vivo, Glycine max; conditions: 500 g ai/ha, postemergence, 10 days, visual injury, 0 to 100 scale (0 no effect, 100 complete control)
Summary of the method: as §2

[27] = test system: horseweed; assay: Test A postemergence; assay type: in vivo, Erigeron canadensis; conditions: postemergence, 10 days
Summary of the method: as §2

[28] = test system: ragweed; assay: Test A postemergence; assay type: in vivo, Ambrosia artemisiifolia; conditions: postemergence, 10 days
Summary of the method: as §2

[29] = 125 g ai/ha, 0 to 100 scale, 0 no effect, 100 complete control
[30] = 500 g ai/ha, visual injury, 0 to 100 scale (0 no effect, 100 complete control)

SMILES: C=CCOc1ccc(-n2cnc(C(C)C)n2)cc1C(=O)N1C[C@H](C)Oc2c(Cl)cccc21 [Compound 110]
- Plant response rating, Sedge, Umbrella [1]: 65
- Plant response rating, Ducksalad [2]: 0
- Plant response rating, Kochia ([3]; 125 g ai/ha): 0
- Plant response rating, Kochia ([3]; 500 g ai/ha): 20
- Corn plant response rating [4, 29]: 10
- Plant response rating, Corn [4, 30]: 50
- Barnyardgrass plant response rating [5, 29]: 20
- Plant response rating, Barnyardgrass [5, 30]: 50
- Plant response rating, Blackgrass ([6]; 125 g ai/ha): 40
- Plant response rating, Blackgrass ([6]; 500 g ai/ha): 70
- Plant response rating, Foxtail, Giant ([7]; 125 g ai/ha): 90
- Plant response rating, Foxtail, Giant ([7]; 500 g ai/ha): 100
- Kochia plant response rating [8, 29]: 70
- Plant response rating, Kochia [8, 30]: 90
- Wheat plant response rating [9, 29]: 10
- Plant response rating, Wheat [9, 30]: 20
- Plant response rating, Barnyardgrass [10]: 55
- Oat, Wild plant response rating [11, 29]: 0
- Plant response rating, Oat, Wild [11, 30]: 30
- Plant response rating, Wheat ([12]; 125 g ai/ha): 20
- Plant response rating, Wheat ([12]; 500 g ai/ha): 30
- Plant response rating, Barnyardgrass ([13]; 125 g ai/ha): 50
- Plant response rating, Barnyardgrass ([13]; 500 g ai/ha): 90
- Galium plant response rating [14, 29]: 100
- Plant response rating, Galium [14, 30]: 100
- Plant response rating, Corn ([15]; 125 g ai/ha): 0
- Plant response rating, Corn ([15]; 500 g ai/ha): 50
- Plant response rating, Soybean ([16]; 125 g ai/ha): 40
- Plant response rating, Soybean ([16]; 500 g ai/ha): 60
- Plant response rating, Oat, Wild ([17]; 125 g ai/ha): 0
- Plant response rating, Oat, Wild ([17]; 500 g ai/ha): 50
- Blackgrass plant response rating [18, 29]: 0
- Plant response rating, Blackgrass [18, 30]: 50
- Foxtail, Giant plant response rating [19, 29]: 40
- Plant response rating, Foxtail, Giant [19, 30]: 90
- Plant response rating, Rice [20]: 0
- Plant response rating, Pigweed, Palmer ([21]; 125 g ai/ha): 90
- Plant response rating, Pigweed, Palmer ([21]; 500 g ai/ha): 100
- Plant response rating, Ragweed ([22]; 125 g ai/ha): 0
- Plant response rating, Ragweed ([22]; 500 g ai/ha): 40
- Ryegrass, Italian plant response rating [23, 29]: 20
- Plant response rating, Ryegrass, Italian [23, 30]: 80
- Pigweed, Palmer plant response rating [24, 29]: 40
- Plant response rating, Pigweed, Palmer [24, 30]: 50
- Plant response rating, Ryegrass, Italian ([25]; 125 g ai/ha): 70
- Plant response rating, Ryegrass, Italian ([25]; 500 g ai/ha): 100
- Plant response rating, Soybean [26]: 100
- Horseweed plant response rating [27, 29]: 0
- Plant response rating, Horseweed [27, 30]: 0
- Ragweed plant response rating [28, 29]: 10
- Plant response rating, Ragweed [28, 30]: 60
